According to ChEMBL document CHEMBL3044968, “N-palmitoylethanolamide derivatives: synthesis and studies on anticonvulsant and antidepressant activities” (Med Chem Res, 2011):
The source made the active and inactive calls. The calls are words filed in the database; no cut-off is given here.

How the values were obtained:
Mus musculus [1] = test: Neurotoxicity in Mus musculus Kunming (mouse) at 100 mg/kg, ip measured after 30 min by rotarod test; assay type: toxicity, organism-based; set-up: dose 100 mg/kg, route intraperitoneal; conditions: in vivo, 0.5 h
Mus musculus [2] = test: Neurotoxicity in Mus musculus Kunming (mouse) at 100 mg/kg, ip measured after 4 hr by rotarod test; assay type: toxicity, organism-based; set-up: dose 100 mg/kg, route intraperitoneal; conditions: in vivo
Mus musculus [3] = test: Neurotoxicity in Mus musculus Kunming (mouse) at 300 mg/kg, ip measured after 30 min by rotarod test; assay type: toxicity, organism-based; set-up: dose 300 mg/kg, route intraperitoneal; conditions: in vivo, 0.5 h
Mus musculus [4] = test: Anticonvulsant activity in Mus musculus Kunming (mouse) assessed as protection against maximal electroshock-induced seizure at 300 mg/kg, ip measured after 4 hr; assay type: functional, organism-based; set-up: dose 300 mg/kg
Mus musculus [5] = test: Neurotoxicity in Mus musculus Kunming (mouse) at 300 mg/kg, ip measured after 4 hr by rotarod test; assay type: toxicity, organism-based; set-up: dose 300 mg/kg, route intraperitoneal; conditions: in vivo
Mus musculus [6] = test: Anticonvulsant activity in Mus musculus Kunming (mouse) assessed as protection against maximal electroshock-induced seizure at 30 mg/kg, ip measured after 30 min; assay type: functional, organism-based; set-up: dose 30 mg/kg
Mus musculus [7] = test: Anticonvulsant activity in Mus musculus Kunming (mouse) assessed as protection against maximal electroshock-induced seizure at 100 mg/kg, ip measured after 4 hr; assay type: functional, organism-based; set-up: dose 100 mg/kg
Mus musculus [8] = test: Neurotoxicity in Mus musculus Kunming (mouse) at 30 mg/kg, ip measured after 30 min by rotarod test; assay type: toxicity, organism-based; set-up: dose 30 mg/kg, route intraperitoneal; conditions: in vivo, 0.5 h
Mus musculus [9] = test: Anticonvulsant activity in Mus musculus Kunming (mouse) assessed as protection against maximal electroshock-induced seizure at 100 mg/kg, ip measured after 30 min; assay type: functional, organism-based; set-up: dose 100 mg/kg
Mus musculus [10] = test: Antidepressant activity in Mus musculus Kunming (mouse) assessed as reduction in duration of immobility at 10 mg/kg, ip measured after 30 min by forced swim test; assay type: functional; conditions: 0.5 h, route intraperitoneal
Mus musculus [11] = test: Anticonvulsant activity in Mus musculus Kunming (mouse) assessed as protection against maximal electroshock-induced seizure at 30 mg/kg, ip measured after 4 hr; assay type: functional, organism-based; set-up: dose 30 mg/kg
Mus musculus [12] = test: Neurotoxicity in Mus musculus Kunming (mouse) at 30 mg/kg, ip measured after 4 hr by rotarod test; assay type: toxicity, organism-based; set-up: dose 30 mg/kg, route intraperitoneal; conditions: in vivo
Mus musculus [13] = test: Anticonvulsant activity in Mus musculus Kunming (mouse) assessed as protection against maximal electroshock-induced seizure at 300 mg/kg, ip measured after 30 min; assay type: functional, organism-based; set-up: dose 300 mg/kg

| SMILES | Activity (Mus musculus [1]) | Activity (Mus musculus [2]) | Activity (Mus musculus [3]) | Activity (Mus musculus [4]) | Activity (Mus musculus [5]) | Activity (Mus musculus [6]) | Activity (Mus musculus [7]) | Activity (Mus musculus [8]) | Activity (Mus musculus [9]) | inhibition in vivo at 10 mg/kg (Mus musculus [10]) | Activity (Mus musculus [11]) | Activity (Mus musculus [12]) | Activity (Mus musculus [13]) |
| --- | --- | --- | --- | --- | --- | --- | --- | --- | --- | --- | --- | --- | --- |
| CCCCCCCCCCCCCCCC(=O)N(CCO)CCO | Non-toxic | Non-toxic | Non-toxic | inactive | Non-toxic | inactive | inactive | Non-toxic | inactive | 26.3% | inactive | Non-toxic | inactive |
| CCCCCCCCCCCCCCCCCC(=O)NCCCO | Non-toxic | Non-toxic | Non-toxic | inactive | Non-toxic | inactive | inactive | Non-toxic | inactive | 14.1% | inactive | Non-toxic | inactive |
| CCCCCCCCCCCCCCCCCC(=O)N(C)CCO | Non-toxic | Non-toxic | Non-toxic | inactive | Non-toxic | inactive | inactive | Non-toxic | inactive | 22% | inactive | Non-toxic | inactive |
| O=C(/C=C/c1ccccc1)NCCCO | Non-toxic | Non-toxic | Toxic | inactive | Non-toxic | inactive | inactive | Non-toxic | inactive | 23.4% | inactive | Non-toxic |  |
| CN(CCO)C(=O)/C=C/c1ccccc1 | Non-toxic | Non-toxic | Toxic |  | Non-toxic | inactive | inactive | Non-toxic |  | 8.41% | inactive | Non-toxic | Active |
| CNCCC(Oc1ccc(C(F)(F)F)cc1)c1ccccc1 (stereo not given) [FLUOXETINE] |  |  |  |  |  |  |  |  |  | 39.4% |  |  |  |
| CCCCCCCCCCCCCCCC(=O)N(CC)CC [HEXADECANOIC ACID DIETHYLAMIDE] | Non-toxic | Non-toxic | Non-toxic | inactive | Non-toxic | inactive | inactive | Non-toxic | inactive | 17.3% | inactive | Non-toxic | inactive |
| O=C(/C=C/c1ccccc1)NCCO [IDROCILAMIDE] | Non-toxic | Non-toxic | Toxic | inactive | Non-toxic | Active | inactive | Non-toxic | Active | 25.9% | inactive | Non-toxic | Active |
| CCN(CC)C(=O)/C=C/c1ccccc1 [N,N-DIETHYLCINNAMAMIDE] | Non-toxic | Non-toxic | Toxic |  | Non-toxic | inactive |  | Non-toxic |  | 18.2% | inactive | Non-toxic | Active |
| CCCCCCCCCCCCCCCCCC(=O)N(CC)CC [N,N-DIETHYLSTEARAMIDE] | Non-toxic | Non-toxic | Non-toxic | inactive | Non-toxic | inactive | inactive | Non-toxic | inactive | 18.4% | inactive | Non-toxic | inactive |
| CN(C)C(=O)/C=C/c1ccccc1 [N,N-DIMETHYLCINNAMAMIDE] | Non-toxic | Non-toxic | Toxic |  | Non-toxic | inactive |  | Non-toxic |  | 20% | inactive | Non-toxic | Active |
| CCCCCCCCCCCCCCCCCC(=O)NCCO [N-(2-HYDROXYETHYL)STEARAMIDE] | Non-toxic | Non-toxic | Non-toxic | inactive | Non-toxic | Active | inactive | Non-toxic | Active | 5.65% | inactive | Non-toxic | Active |
| CCCCCCCCCCCCCCCC(=O)NCCCO [N-(3-HYDROXYPROPYL)PALMITAMIDE] | Non-toxic | Non-toxic | Non-toxic | inactive | Non-toxic | inactive | inactive | Non-toxic | inactive | 22.2% | inactive | Non-toxic | inactive |
| CCCCCCCCCCCCCCCC(=O)NCCO [PALMIDROL] | Non-toxic | Non-toxic | Non-toxic | inactive | Non-toxic |  | inactive | Non-toxic | Active | 6.25% | inactive | Non-toxic | Active |
